Results: the Deep4Chem optical property database
Values belong to the molecule of their own block, whether it stands above or below them.

Test: photoluminescence quantum yield (fraction); solvent given as SMILES

photoluminescence quantum yield (in c1cc(-c2cccc(-n3c4ccccc4c4ccccc43)c2)cc(-n2c3ccccc3c3ccccc32)c1): 0.56
Structure (SMILES): Cc1cc(C)c2c(c1)c1cc(C)cc(C)c1n2-c1ccc2c(c1)B(c1c(C(C)C)cc(C(C)C)cc1C(C)C)c1cc(-n3c4c(C)cc(C)cc4c4cc(C)cc(C)c43)ccc1N2c1ccccc1

photoluminescence quantum yield (in ClC(Cl)Cl): 0.28
Structure (SMILES): CCCCCCN1C(=O)c2cccc3c(-c4cc5ccccc5s4)ccc(c23)C1=O

photoluminescence quantum yield (in C1CCCCC1): 0.93
Structure (SMILES): c1cc2c3c(c1)OCCCCCCOc1cccc(c1-c1c4ccccc4c-3c3ccccc13)OCCCCCCO2

Structure (SMILES): CCCCCCCCN1c2ccccc2Sc2cc(/C=C/c3ccc(N(c4ccc(/C=C/c5ccc6c(c5)Sc5ccccc5N6CCCCCCCC)cc4)c4ccc(/C=C/c5ccc(/C=C/c6ccc(N(c7ccc(/C=C/c8ccc9c(c8)Sc8ccccc8N9CCCCCCCC)cc7)c7ccc(/C=C/c8ccc9c(c8)Sc8ccccc8N9CCCCCCCC)cc7)cc6)c6nsnc56)cc4)cc3)ccc21
photoluminescence quantum yield (in C1CCOC1): 0.024
photoluminescence quantum yield (in CCOC(C)=O): 0.125
photoluminescence quantum yield (in CN(C)C=O): 0.001
photoluminescence quantum yield (in Cc1ccccc1): 0.278
photoluminescence quantum yield (in ClC(Cl)Cl): 0.061
photoluminescence quantum yield (in ClCCl): 0.003

photoluminescence quantum yield (in ClC(Cl)Cl): 0.32
Structure (SMILES): CCn1c2ccccc2sc2c(C#N)c3[nH]c4ccccc4sc3c(C#N)c21

photoluminescence quantum yield (in ClCCl): 0.15
Structure (SMILES): CCCCCC(=O)c1ccc2c3c(sc2c1)-c1ccccc1P3(=O)c1ccccc1 (configuration not stated)

Structure (SMILES): N#Cc1c(-n2c3ccc(Br)cc3c3cc(Br)ccc32)c(-n2c3ccc(Br)cc3c3cc(Br)ccc32)c(C#N)c(-n2c3ccc(Br)cc3c3cc(Br)ccc32)c1-n1c2ccc(Br)cc2c2cc(Br)ccc21
photoluminescence quantum yield (in Cc1ccccc1): 0.45

photoluminescence quantum yield (in C1CCOC1): 0.96
Structure (SMILES): FC(F)(F)c1ccc(C2=CC3=c4cc(-c5ccc(C(F)(F)F)cc5)c5nc(C(F)(F)C(F)(F)C(F)(F)F)nc6c(-c7ccc(C(F)(F)F)cc7)cc(c4c65)C4=CC(c5ccc(C(F)(F)F)cc5)=C5N=C(C(F)(F)C(F)(F)C(F)(F)F)N=C2C5C43)cc1 (configuration not stated)

photoluminescence quantum yield (in CS(C)=O): 0.14
Structure (SMILES): Cc1ccc(N/C=C/C=[NH+]c2ccc(C)cc2)cc1

photoluminescence quantum yield (in C1COCCO1): 0.14
photoluminescence quantum yield (in CC#N): 0.17
photoluminescence quantum yield (in CC(C)O): 0.2
photoluminescence quantum yield (in CCCCO): 0.2
photoluminescence quantum yield (in CCO): 0.18
photoluminescence quantum yield (in CCOC(C)=O): 0.14
photoluminescence quantum yield (in CN(C)C=O): 0.14
photoluminescence quantum yield (in CO): 0.16
photoluminescence quantum yield (in CS(C)=O): 0.25
Structure (SMILES): O=S(=O)([O-])c1ccc(O)c2ccccc12

photoluminescence quantum yield (in ClCCl): 0.55
Structure (SMILES): C[Si]1(C)C(c2ccccc2)=Cc2ccccc21

photoluminescence quantum yield (in C1CCOC1): 0.033
photoluminescence quantum yield (in CCCCCC): 0.872
photoluminescence quantum yield (in ClC(Cl)Cl): 0.21
photoluminescence quantum yield (in ClCCl): 0.03
Structure (SMILES): O=C1c2cccc3c(-n4c5ccccc5c5ccccc54)ccc(c23)C(=O)N1C1CCCCC1

photoluminescence quantum yield (in ClCCl): 0.128
Structure (SMILES): Cc1ccc(-c2c3nc(c(-c4ccc(C)cc4)c4ccc([nH]4)c(-c4ccc(OC(=O)C(C)c5ccc(Oc6ccccc6)cc5)cc4)c4nc(c(-c5ccc(C)cc5)c5ccc2[nH]5)C=C4)C=C3)cc1 (configuration not stated)

Structure (SMILES): c1ccc(-c2cc(-c3ccc(N4c5ccccc5C(c5ccccc5)(c5ccccc5)c5ccccc54)cc3)nc(-c3ccccc3)n2)cc1
photoluminescence quantum yield (in O=P(c1ccccc1)(c1ccccc1)c1ccccc1Oc1ccccc1P(=O)(c1ccccc1)c1ccccc1): 0.7

photoluminescence quantum yield (in CC#N): 0.42
photoluminescence quantum yield (in CCCCCC): 0.61
Structure (SMILES): C(=C\c1ccc2ccccc2c1)/c1ccc(N(c2ccccc2)c2ccccc2)cc1

photoluminescence quantum yield (in ClCCl): 0.19
Structure (SMILES): COc1ccc(-c2cnc(-c3ccccc3)o2)cc1OC

Structure (SMILES): CN(C)c1ccc(C2=Nc3sc4ccccc4[n+]3[B-](F)(F)O2)cc1
photoluminescence quantum yield (in C1CCOC1): 0.78
photoluminescence quantum yield (in CC#N): 0.17
photoluminescence quantum yield (in CC(C)=O): 0.31
photoluminescence quantum yield (in Cc1ccccc1): 0.84
photoluminescence quantum yield (in ClCCl): 0.77

photoluminescence quantum yield (in ClCCl): 0.51
Structure (SMILES): CCCCCc1ccc(-c2ccc(C#Cc3cc(C#Cc4ccc(-c5ccc(CCCCC)cc5)cc4)c4ccc5c(C(=O)c6ccccc6)cc(C#Cc6ccc(-c7ccc(CCCCC)cc7)cc6)c6ccc3c4c65)cc2)cc1

Structure (SMILES): CCCCCCOc1ccc(C#Cc2ccc(-c3ccc(-c4ccc(C#Cc5ccc(OCCCCCC)c(OCCCCCC)c5)s4)c4nsnc34)s2)cc1OCCCCCC
photoluminescence quantum yield (in C1CCCCC1): 0.54
photoluminescence quantum yield (in CCOC(C)=O): 0.46
photoluminescence quantum yield (in CN(C)C=O): 0.24
photoluminescence quantum yield (in COc1ccccc1): 0.48
photoluminescence quantum yield (in Cc1ccccc1): 0.55
photoluminescence quantum yield (in ClC(Cl)Cl): 0.43
photoluminescence quantum yield (in ClCCCl): 0.34
photoluminescence quantum yield (in ClCCl): 0.35

photoluminescence quantum yield (in ClCCl): 0.86
Structure (SMILES): COc1cccc(OC)c1-c1c2ccc(=[N+]3CCCCC3)cc-2oc2cc(N3CCCCC3)ccc12

photoluminescence quantum yield (in ClCCl): 0.51
Structure (SMILES): COc1ccc2cc(/C=C/C3=[O+][B-](F)(F)OC(/C=C/c4ccc5cc(OC)ccc5c4)=C3c3ccccc3)ccc2c1

Structure (SMILES): Cc1ccc(C2=C3C=CC(C#Cc4ccccc4)=[N+]3[B-](F)(F)n3c(C#Cc4ccccc4)ccc32)cc1
photoluminescence quantum yield (in C1CCCCC1): 1
photoluminescence quantum yield (in C1CCOC1): 0.99
photoluminescence quantum yield (in C1COCCO1): 1
photoluminescence quantum yield (in CCOC(C)=O): 1
photoluminescence quantum yield (in CO): 1
photoluminescence quantum yield (in Cc1ccccc1): 1
photoluminescence quantum yield (in ClC(Cl)Cl): 1
photoluminescence quantum yield (in ClCCl): 1

photoluminescence quantum yield (in CC#N): 0.44
photoluminescence quantum yield (in CCCCCC): 0.34
photoluminescence quantum yield (in CCOC(C)=O): 0.36
photoluminescence quantum yield (in CO): 0.42
photoluminescence quantum yield (in ClCCl): 0.43
Structure (SMILES): CCCSC1=[N+]2C(=C(c3ccccc3)c3ccc(SCCC)n3[B-]2(F)F)C=C1

photoluminescence quantum yield (in C1CCCCC1): 0.22
Structure (SMILES): COc1ccc(OC)cc1

photoluminescence quantum yield (in ClCCl): 0.0137
Structure (SMILES): COc1cc(C2=CC(c3ccccc3)=C(c3ccccc3)C2)cc(OC)c1OC

Structure (SMILES): CC1(C)[C@@H]2CC[C@]1(C)c1nc3cc(-c4cccs4)ccc3nc12
photoluminescence quantum yield (in CC#N): 0.06
photoluminescence quantum yield (in CCCCO): 0.35
photoluminescence quantum yield (in CCO): 0.37
photoluminescence quantum yield (in CCOC(C)=O): 0.02
photoluminescence quantum yield (in CO): 0.52
photoluminescence quantum yield (in Cc1ccccc1): 0.01
photoluminescence quantum yield (in ClC(Cl)Cl): 0.11
photoluminescence quantum yield (in ClCCl): 0.05

photoluminescence quantum yield (in CC#N): 0.012
photoluminescence quantum yield (in CCCCCC): 0.005
Structure (SMILES): Cc1ccc(C)n1-c1ccccc1

photoluminescence quantum yield (in C1CCCCC1): 0.4
Structure (SMILES): Cc1cccc2ccccc12

photoluminescence quantum yield (in CC(C)O): 0.14
photoluminescence quantum yield (in CCO): 0.11
photoluminescence quantum yield (in CO): 0.08
photoluminescence quantum yield (in O): 0.018
Structure (SMILES): O=C([O-])c1c(Cl)c(Cl)c(Cl)c(Cl)c1-c1c2cc(I)c(=O)c(I)c-2oc2c(I)c([O-])c(I)cc12

photoluminescence quantum yield (in ClCCl): 0.04
Structure (SMILES): CN(C)c1ccc(/C=C/c2ccnc(/C=C/c3ccc(N(C)C)cc3)n2)cc1

photoluminescence quantum yield (in ClCCl): 0.23
Structure (SMILES): CC(C)(C)c1ccc(C#Cc2cc3c(C#Cc4ccc(C(C)(C)C)cc4)c(C#Cc4ccc(C(C)(C)C)cc4)c4cc(C#Cc5ccc(C(C)(C)C)cc5)cc5c(C#Cc6ccc(C(C)(C)C)cc6)c(C#Cc6ccc(C(C)(C)C)cc6)c(c2)c3c45)cc1

photoluminescence quantum yield (in CO): 0.84
Structure (SMILES): C#CCOc1ccc(/C=C/C2=[N+]3C(=C(c4ccc(N(CC)CC)cc4)c4c(C)cc(C)n4[B-]3(F)F)C(C)=C2)cc1

photoluminescence quantum yield (in C1CCCCC1): 0.02
Structure (SMILES): C(#Cc1cccc2cc(-c3ccccc3)c3cc(-c4cc[b-]5c(c4)c(-c4ccccc4)cc4cccc(C#Cc6ccccc6)[n+]54)cc[b-]3[n+]12)c1ccccc1

photoluminescence quantum yield (in CC#N): 0.46
photoluminescence quantum yield (in ClCCl): 0.44
Structure (SMILES): F[B-]1(F)n2c(-c3cccs3)cc(-c3ccccc3)c2N=C2C(c3ccccc3)=CC(c3cccs3)=[N+]21

Structure (SMILES): CCC1=C(C)C2=Cc3c(I)c(I)c(I)n3[B-](F)(F)[N+]2=C1C
photoluminescence quantum yield (in C1CCCCC1): 0.065
photoluminescence quantum yield (in CC(C)=O): 0.029
photoluminescence quantum yield (in CCO): 0.037
photoluminescence quantum yield (in CCOC(C)=O): 0.037
photoluminescence quantum yield (in CO): 0.032
photoluminescence quantum yield (in OCC(F)(F)F): 0.021

photoluminescence quantum yield (in CO): 0.82
Structure (SMILES): CCN(CC)c1ccc(C2=C3C(C)=CC(/C=C/c4ccc(OCCCN=[N+]=[N-])cc4)=[N+]3[B-](F)(F)n3c(C)cc(C)c32)cc1

Structure (SMILES): Cc1cc(C)c(B(c2ccc(-c3nc4c5ccccc5c5ccccc5c4[nH]3)cc2)c2c(C)cc(C)cc2C)c(C)c1
photoluminescence quantum yield (in C1CCOC1): 0.79
photoluminescence quantum yield (in CC(C)=O): 0.71
photoluminescence quantum yield (in CS(C)=O): 0.76
photoluminescence quantum yield (in Cc1ccccc1): 0.92
photoluminescence quantum yield (in ClCCl): 0.8

photoluminescence quantum yield (in C1CCOC1): 0.01
photoluminescence quantum yield (in CS(C)=O): 0.01
photoluminescence quantum yield (in ClCCl): 0.02
Structure (SMILES): COc1cc(OC)cc(C2=C3C(C)=C(I)C(/C=C/c4ccsc4)=[N+]3[B-](F)(F)n3c(/C=C/c4ccsc4)c(I)c(C)c32)c1

photoluminescence quantum yield (in ClC(Cl)Cl): 0.9
Structure (SMILES): CCOC(CN1C(=O)C2=C(c3ccsc3)N(CC(OCC)OCC)C(=O)C2=C1c1ccsc1)OCC

photoluminescence quantum yield (in ClCCl): 0.45
Structure (SMILES): CCCc1ccc(C#Cc2ccc3nc4ccc(C#Cc5ccc(CCC)cc5)cn4c(=O)c3c2)cc1

photoluminescence quantum yield (in ClC(Cl)Cl): 0.32
Structure (SMILES): CC1=[N+]2C(=C(c3c4ccccc4cc4ccccc34)c3ccc(/C=C/C(C)(C)C)n3[B-]2(F)F)C=C1

photoluminescence quantum yield (in ClC(Cl)Cl): 0.53
Structure (SMILES): CCCCCCCCOc1ccc(-c2c3c4n(c(-c5ccc(OCCCCCCCC)cc5)c3c3n2[B-](c2ccccc2)(c2ccccc2)[n+]2c(ccc5cc(C(C)(C)C)ccc52)C=3C#N)[B-](c2ccccc2)(c2ccccc2)[n+]2c(ccc3cc(C(C)(C)C)ccc32)C=4C#N)cc1

photoluminescence quantum yield (in ClC(Cl)Cl): 0.41
Structure (SMILES): CCOC(CN1C(=O)C2=C(c3cccs3)N(CC(OCC)OCC)C(=O)C2=C1c1cccs1)OCC

Structure (SMILES): CCCCCN(c1ccccc1)c1ccc2c(c1)C(CC)(CC)c1cc(/C=C/c3ccc(/C=C(\C#N)C(=O)O)s3)ccc1-2
photoluminescence quantum yield (in C1CCOC1): 0.405
photoluminescence quantum yield (in C1COCCO1): 0.969
photoluminescence quantum yield (in CC#N): 0.025
photoluminescence quantum yield (in CC(C)=O): 0.223
photoluminescence quantum yield (in CCOC(C)=O): 0.801
photoluminescence quantum yield (in CN(C)C=O): 0.651
photoluminescence quantum yield (in CS(C)=O): 0.622
photoluminescence quantum yield (in ClCCl): 0.005

photoluminescence quantum yield (in C1CCCCC1): 0.075
photoluminescence quantum yield (in CC#N): 0.0075
photoluminescence quantum yield (in CCO): 0.00027
photoluminescence quantum yield (in c1ccccc1): 0.073
Structure (SMILES): CN(C)c1cccc2c1-c1ccccc1C2=O

photoluminescence quantum yield (in CCO): 0.8
Structure (SMILES): CN1c2cc3nc4cc(F)c(F)cc4nc3cc2N(C)C1(C)C

Structure (SMILES): COc1ccc(C2=[N+]3C(=Nc4c5c6cc(OC)c(OC)c(OC)c6c6cc(C(C)(C)C)ccc6c5c(-c5ccc(OC)cc5)n4[B-]3(F)F)c3c2c2ccc(C(C)(C)C)cc2c2c(OC)c(OC)c(OC)cc32)cc1
photoluminescence quantum yield (in Cc1ccccc1): 0.35

photoluminescence quantum yield (in CC#N): 0.095
photoluminescence quantum yield (in c1ccccc1): 0.083
Structure (SMILES): Cc1ccc(-c2cc(-c3ccc(N(C)C)cc3)c3c(N)nc(N4CCCC4)c(C#N)c3n2)cc1

Structure (SMILES): Cc1nnc(-c2ccc(-n3c4ccccc4c4ccccc43)cc2)o1
photoluminescence quantum yield (in Cc1ccccc1): 0.55
